Our source for the EC50 values is patent publication US20060148858A1, “1, 2-Azole derivatives with hypoglycemic and hypolipidemic activity” (priority 2002, published 2006).

The assay has as its target T1, PPARδ-RXRα heterodimer (Homo sapiens, UniProt Q03181).
T1 construct: expressed in transfected cells; host or cells: COS-1
T1 sequence (Q03181 1-441): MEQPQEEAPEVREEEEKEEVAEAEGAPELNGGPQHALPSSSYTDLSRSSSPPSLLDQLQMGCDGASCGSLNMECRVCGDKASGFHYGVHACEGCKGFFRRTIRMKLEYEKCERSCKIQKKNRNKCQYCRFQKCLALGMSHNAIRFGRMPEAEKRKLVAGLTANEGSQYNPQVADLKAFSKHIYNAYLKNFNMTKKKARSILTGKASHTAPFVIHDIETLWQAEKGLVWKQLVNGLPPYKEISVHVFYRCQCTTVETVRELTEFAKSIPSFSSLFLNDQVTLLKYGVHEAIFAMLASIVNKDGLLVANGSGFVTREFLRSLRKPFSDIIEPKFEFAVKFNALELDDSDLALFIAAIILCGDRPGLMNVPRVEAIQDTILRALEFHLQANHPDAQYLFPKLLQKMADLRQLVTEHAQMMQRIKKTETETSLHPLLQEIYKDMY
T1 sequence (P19793 1-462 partner): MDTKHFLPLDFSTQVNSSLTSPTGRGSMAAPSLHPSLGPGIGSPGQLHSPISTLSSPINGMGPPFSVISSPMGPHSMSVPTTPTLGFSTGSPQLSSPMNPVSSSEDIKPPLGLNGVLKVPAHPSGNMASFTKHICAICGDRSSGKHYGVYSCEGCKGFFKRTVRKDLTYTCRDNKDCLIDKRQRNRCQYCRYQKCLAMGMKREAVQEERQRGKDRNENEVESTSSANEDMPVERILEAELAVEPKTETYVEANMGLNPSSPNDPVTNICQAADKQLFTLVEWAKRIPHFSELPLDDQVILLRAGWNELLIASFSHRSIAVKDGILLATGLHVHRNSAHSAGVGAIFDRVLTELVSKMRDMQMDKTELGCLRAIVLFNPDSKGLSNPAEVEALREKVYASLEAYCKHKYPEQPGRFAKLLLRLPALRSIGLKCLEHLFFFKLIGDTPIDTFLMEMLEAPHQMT
The assay can be described thus: PPARδ-RXRα heterodimer ligand activity, luciferase reporter in COS-1 transformant (Test Example 4). It counts as cell-based. To be noted: COS-1 transformant (hPPARδ, hRXRα, reporter), 36-48 hours, concentration for 50% of the maximum fold induction. Summed up:
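COS-1 cells transiently co-transfected with human PPARδ, human RXRα, PPRE-luciferase reporter and pRL-tk, then exposed to compound 36-48 h at 37 °C in DMEM with 0.1% fatty acid-free BSA. Luciferase read as fold induction over untreated; EC50 at 50% of maximal fold induction.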

`Cc1cccc(CC(=O)O)c1OCCCc1cn(-c2ccc(C(F)(F)F)cn2)nc1C1CCCCC1` [Example 316, [2-(3-{3-cyclohexyl-1-[5-(trifluoromethyl)-2-pyridinyl]-1H-pyrazol-4-yl}propoxy)-3-methylphenyl]acetic acid]: the response was half-maximal at 9.9 nM (EC50). As for `CCCc1nn(-c2ccc(C(F)(F)F)cn2)cc1CCCOc1c(C)cccc1CC(=O)O` [Example 319, [3-methyl-2-(3-{3-propyl-1-[5-(trifluoromethyl)-2-pyridinyl]-1H-pyrazol-4-yl}propoxy)phenyl]acetic acid], the figure is 5.1 nM; as for `CCC(CC)c1nn(-c2ccc(C(F)(F)F)nn2)cc1CCCOc1c(C)cccc1CC(=O)O` [Example 340, [2-(3-{3-(1-ethylpropyl)-1-[6-(trifluoromethyl)pyridazin-3-yl]-1H-pyrazol-4-yl}propoxy)-3-methylphenyl]acetic acid], 45 nM.

`CCC(CC)c1nn(-c2ccc(Br)cn2)cc1CCCOc1c(CC(=O)O)cccc1OC` [Example 351, (2-{3-[1-(5-bromo-2-pyridinyl)-3-(1-ethylpropyl)-1H-pyrazol-4-yl]propoxy}-3-methoxyphenyl)acetic acid] came in with an EC50 of 72 nM. `Cc1cccc(CC(=O)O)c1OCCCc1cn(-c2ccc(C(F)(F)F)nn2)nc1C(C)(C)C` [Example 367, [2-(3-{3-tert-butyl-1-[6-(trifluoromethyl)pyridazin-3-yl]-1H-pyrazol-4-yl}propoxy)-3-methylphenyl]acetic acid] displayed an EC50 of 150 nM.
